Data on 21 molecules can be found in US20250129078A1, “ERBB2 INHIBITORS” (Cogent Biosciences, Inc., priority 2023, published 2025).

Molecules are shown by their SMILES. Where two headings read alike, the source gives them in different places.

By IC50 is commonly meant the concentration that gives 50% inhibition. A lower IC50 goes with inhibition by little substance.

One experiment has as its target ErbB2 V777L (Homo sapiens (Human), UniProt P04626, V777L). In words: ErbB enzyme assay (CisBio HTRF-KinEASE-TK), ErbB2 V777L. The class given is biochemical. The method in brief: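 HTRF KinEASE-TK tyrosine-kinase read-out of substrate phosphorylation after a final 1 h at ambient temperature, from the 655/620 nm emission ratio.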
Another experiment concerns the target EGFR WT (Homo sapiens (Human), UniProt P00533). In words: ErbB enzyme assay (CisBio HTRF-KinEASE-TK), EGFR WT. The class given is biochemical. Particulars: ATP at Km (25 μM), 1 h incubation. The method in brief: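 IC50 comes from a 4-parameter fit where the curve crosses 50 percent of control, using the 655/620 nm time-resolved fluorescence ratio with DMSO-only and pre-quenched references. Kinase reactions ran 1 h at ambient temperature before Sa-XL665/cryptate-antibody detection (1 h).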
A general note: TR-FRET usually uses a lanthanide donor and a delayed reading to cut background.

EGFR WT, sequence (P00533 25-1210): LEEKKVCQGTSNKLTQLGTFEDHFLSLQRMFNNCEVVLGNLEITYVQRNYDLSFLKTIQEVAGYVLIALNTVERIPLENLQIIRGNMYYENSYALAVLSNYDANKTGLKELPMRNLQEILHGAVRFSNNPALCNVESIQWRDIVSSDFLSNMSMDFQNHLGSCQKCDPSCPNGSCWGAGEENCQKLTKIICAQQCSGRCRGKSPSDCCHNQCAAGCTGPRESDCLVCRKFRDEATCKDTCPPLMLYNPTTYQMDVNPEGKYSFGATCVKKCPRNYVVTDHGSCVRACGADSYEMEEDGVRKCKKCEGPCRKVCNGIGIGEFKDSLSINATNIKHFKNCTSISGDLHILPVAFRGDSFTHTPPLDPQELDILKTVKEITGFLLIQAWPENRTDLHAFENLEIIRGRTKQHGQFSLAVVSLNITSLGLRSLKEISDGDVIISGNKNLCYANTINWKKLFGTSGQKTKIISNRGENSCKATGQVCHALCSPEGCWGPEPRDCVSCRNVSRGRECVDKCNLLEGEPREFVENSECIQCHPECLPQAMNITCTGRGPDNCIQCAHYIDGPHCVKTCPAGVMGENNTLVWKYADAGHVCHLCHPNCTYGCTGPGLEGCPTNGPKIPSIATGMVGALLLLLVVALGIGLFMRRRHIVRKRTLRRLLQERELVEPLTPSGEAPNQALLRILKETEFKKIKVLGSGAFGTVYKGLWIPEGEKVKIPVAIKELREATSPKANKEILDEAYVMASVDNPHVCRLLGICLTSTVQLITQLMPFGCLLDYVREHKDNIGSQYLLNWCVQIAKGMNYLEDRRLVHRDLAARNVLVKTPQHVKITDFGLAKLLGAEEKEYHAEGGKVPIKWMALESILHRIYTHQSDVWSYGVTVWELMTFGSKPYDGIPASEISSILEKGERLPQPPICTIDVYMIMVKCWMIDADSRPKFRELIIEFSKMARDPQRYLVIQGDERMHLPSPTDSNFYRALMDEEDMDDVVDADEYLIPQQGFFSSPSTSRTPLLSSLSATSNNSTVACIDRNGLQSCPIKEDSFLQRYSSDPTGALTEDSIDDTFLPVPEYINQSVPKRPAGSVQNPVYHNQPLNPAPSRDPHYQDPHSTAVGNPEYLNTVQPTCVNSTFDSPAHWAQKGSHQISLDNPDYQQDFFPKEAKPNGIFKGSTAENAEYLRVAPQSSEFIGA
ErbB2 V777L, sequence (P04626 23-1255 V777L): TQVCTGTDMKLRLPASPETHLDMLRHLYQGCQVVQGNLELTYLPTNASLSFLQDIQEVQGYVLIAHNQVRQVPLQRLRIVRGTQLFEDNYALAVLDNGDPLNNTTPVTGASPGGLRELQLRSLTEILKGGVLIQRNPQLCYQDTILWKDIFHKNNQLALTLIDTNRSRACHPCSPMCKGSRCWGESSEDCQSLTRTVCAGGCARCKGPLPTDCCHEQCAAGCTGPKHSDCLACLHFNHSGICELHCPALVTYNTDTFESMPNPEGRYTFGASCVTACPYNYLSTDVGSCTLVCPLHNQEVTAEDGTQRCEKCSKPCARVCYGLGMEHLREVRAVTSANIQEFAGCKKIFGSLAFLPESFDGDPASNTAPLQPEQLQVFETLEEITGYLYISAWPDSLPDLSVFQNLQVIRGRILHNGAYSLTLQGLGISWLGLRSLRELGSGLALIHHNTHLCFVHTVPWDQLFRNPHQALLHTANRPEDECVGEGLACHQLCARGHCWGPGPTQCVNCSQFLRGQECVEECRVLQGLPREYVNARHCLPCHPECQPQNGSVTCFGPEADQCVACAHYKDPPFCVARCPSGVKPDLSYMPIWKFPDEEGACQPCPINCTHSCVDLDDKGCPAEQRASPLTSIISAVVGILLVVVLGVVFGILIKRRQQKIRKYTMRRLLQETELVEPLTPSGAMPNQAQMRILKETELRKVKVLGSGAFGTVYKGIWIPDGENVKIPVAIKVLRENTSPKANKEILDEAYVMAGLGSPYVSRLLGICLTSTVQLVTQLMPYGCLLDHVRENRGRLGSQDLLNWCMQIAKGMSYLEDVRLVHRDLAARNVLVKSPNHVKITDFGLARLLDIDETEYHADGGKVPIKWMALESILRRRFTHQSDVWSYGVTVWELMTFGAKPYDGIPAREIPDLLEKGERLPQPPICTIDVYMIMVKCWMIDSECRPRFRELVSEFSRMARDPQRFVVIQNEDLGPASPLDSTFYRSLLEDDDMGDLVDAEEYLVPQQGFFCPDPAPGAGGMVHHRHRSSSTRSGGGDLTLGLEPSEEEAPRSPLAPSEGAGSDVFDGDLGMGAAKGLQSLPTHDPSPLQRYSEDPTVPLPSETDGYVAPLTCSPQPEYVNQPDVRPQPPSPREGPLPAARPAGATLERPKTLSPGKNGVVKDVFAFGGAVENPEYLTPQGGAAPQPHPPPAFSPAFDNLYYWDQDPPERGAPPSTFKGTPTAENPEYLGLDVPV

With `C=CC(=O)N1[C@@H]2CC[C@H]1C[C@@H](Oc1ncc3ncnc(Nc4ccc(Oc5ccc6c(c5)ncn6C)c(C)c4)c3n1)C2` [Compound 391, 1-((1R,3r,5S)-3-((8-((3-methyl-4-((1-methyl-1H-benzo[d]imidazol-5-yl)oxy)phenyl)amino)pyrimido[5,4-d]pyrimidin-2-yl)oxy)-8-azabicyclo[3.2.1]octan-8-yl)prop-2-en-1-one], the IC50 on ErbB2 V777L and at EGFR WT was 500 to 1000 nM throughout.
For `C=CC(=O)N1CCN(c2ncc3ncnc(Nc4ccc(Oc5ccc6c(c5)nnn6C)c(C)c4)c3n2)C[C@@H]1CC` [Compound 115, (S)-1-(2-ethyl-4-(8-((3-methyl-4-((1-methyl-1H-benzo[d][1,2,3]triazol-5-yl)oxy)phenyl)amino)pyrimido[5,4-d]pyrimidin-2-yl)piperazin-1-yl)prop-2-en-1-one], the values for the IC50 against ErbB2 V777L and at EGFR WT were 500 to 1000 nM and ≥ 1000 nM, respectively.
As to `C=CC(=O)N1CCN(c2ccc3ncnc(Nc4ccc(Oc5ccc6c(c5)nnn6C)c(C)c4F)c3n2)CC1(C)C` [Compound 275, 1-(4-(4-((2-fluoro-3-methyl-4-((1-methyl-1H-benzo[d][1,2,3]triazol-5-yl)oxy)phenyl)amino)pyrido[3,2-d]pyrimidin-6-yl)-2,2-dimethylpiperazin-1-yl)prop-2-en-1-one], the IC50 against ErbB2 V777L and against EGFR WT was 100 to 500 nM in each case.
In the case of `C=CC(=O)NC1CC=C(c2ccc3ncnc(Nc4ccc(Oc5ccc6c(c5)nnn6C)c(C)c4)c3n2)CC1` (stereo not drawn) [Compound 412, N-(4-(4-((3-methyl-4-((1-methyl-1H-benzo[d][1,2,3]triazol-5-yl)oxy)phenyl)amino)pyrido[3,2-d]pyrimidin-6-yl)cyclohex-3-en-1-yl)acrylamide], the 50% inhibitory concentration (IC50) on ErbB2 V777L and against EGFR WT was 100 to 500 nM in each case.
As for `C=CC(=O)N1CCN(c2ccc3ncnc(Nc4ccc(Oc5ccc6c(c5)nnn6C)c(C)c4F)c3n2)C[C@@H]1C` [Compound 325, (S)-1-(4-(4-((2-fluoro-3-methyl-4-((1-methyl-1H-benzo[d][1,2,3]triazol-5-yl)oxy)phenyl)amino)pyrido[3,2-d]pyrimidin-6-yl)-2-methylpiperazin-1-yl)prop-2-en-1-one], the 50% inhibitory concentration (IC50) at ErbB2 V777L and against EGFR WT was 100 to 500 nM throughout.
In the case of `C=CC(=O)N1CCN(c2ccc3ncnc(Nc4cc(C)c(Oc5ccc6c(c5)nnn6C)cc4OC(F)(F)F)c3n2)CC1(C)C` [Compound 306, 1-(2,2-dimethyl-4-(4-((5-methyl-4-((1-methyl-1H-benzo[d][1,2,3]triazol-5-yl)oxy)-2-(trifluoromethoxy)phenyl)amino)py-rido[3,2-d]pyrimidin-6-yl)piperazin-1-yl)prop-2-en-1-one], the half-inhibitory concentration (IC50) at ErbB2 V777L and on EGFR WT was 100 to 500 nM in each case.
As for `C=CC(=O)N1CCN(c2ccc3ncnc(Nc4cc(C)c(Oc5ccc6c(c5)ncn6C(F)F)cc4OC)c3n2)C[C@H]1C` [Compound 307, (R)-1-(4-(4-((4-((1-(difluoromethyl)-1H-benzo[d]imidazol-5-yl)oxy)-2-methoxy-5-methylphenyl)amino)pyrido[3,2-d]pyrimidin-6-yl)-2-methylpiperazin-1-yl)prop-2-en-1-one], the IC50 at ErbB2 V777L and at EGFR WT was 100 to 500 nM in each case.
In the case of `C=CC(=O)N1CCN(c2ccc3ncnc(Nc4ccc(Oc5ccc6c(c5)nnn6C)c(C)c4)c3n2)C[C@H]1C1CC1` [Compound 335, (R)-1-(2-cyclopropyl-4-(4-((3-methyl-4-((1-methyl-1H-benzo[d][1,2,3]triazol-5-yl)oxy)phenyl)amino)pyrido[3,2-d]pyrimidin-6-yl)piperazin-1-yl)prop-2-en-1-one], the half-inhibitory concentration (IC50) against ErbB2 V777L fell in the range of 50 to 100 nM; on EGFR WT it was 100 to 500 nM.
The like results for `C=CC(=O)N1CCN(c2ncc3ncnc(Nc4ccc(Oc5ccc6c(c5)nnn6C(F)F)c(C)c4)c3n2)CC1` [Compound 63, 1-(4-(8-((4-((1-(difluoromethyl)-1H-benzo[d][1,2,3]triazol-5-yl)oxy)-3-methylphenyl)amino)pyrimido[5,4-d]pyrimidin-2-yl)piperazin-1-yl)prop-2-en-1-one] were, in that order, 50 to 100 nM and < 50 nM.
As for `C=CC(=O)N1CCN(c2ncc3ncnc(Nc4ccc(Oc5ccc6c(c5)nnn6C)c(C)c4)c3n2)CC[C@H]1C` [Compound 152, (R)-1-(7-methyl-4-(8-((3-methyl-4-((1-methyl-1H-benzo[d][1,2,3]triazol-5-yl)oxy)phenyl)amino)pyrimido[5,4-d]pyrimidin-2-y1)-1,4-diazepan-1-yl)prop-2-en-1-one], the IC50 on ErbB2 V777L is 500 to 1000 nM; against EGFR WT it was ≥ 1000 nM.
The corresponding values for `C=C1CCN([C@@H]2CCN(c3ncc4ncnc(Nc5ccc(Oc6ccn7ncnc7c6)c(C)c5)c4n3)C2)C1=O` [Compound 238, (R)-1′-(8-((4-([1,2,4]triazolo[1,5-a]pyridin-7-yloxy)-3-methylphenyl)amino)pyrimido[5,4-d]pyrimidin-2-yl)-3-methylene-[1,3′-bipyrrolidin]-2-one] are 100 to 500 nM and ≥ 1000 nM.
The corresponding values for `C=C1CCN(C2CCN(c3ncc4ncnc(Nc5ccc(Oc6ccn7ncnc7c6)c(C)c5)c4n3)CC2)C1=O` [Compound 240, 1-(1-(8-((4-([1,2,4]triazolo[1,5-a]pyridin-7-yloxy)-3-methylphenyl)amino)pyrimido[5,4-d]pyrimidin-2-yl)piperidin-4-yl)-3-methylenepyrrolidin-2-one] are 100 to 500 nM and ≥ 1000 nM.
The like results for `C=CC(=O)N1C2CC1CN(c1ncc3ncnc(Nc4cc(C)c(Oc5ccc6c(c5)nnn6C)cc4OC)c3n1)C2` [Compound 13, 1-(3-(8-((2-methoxy-5-methyl-4-((1-methyl-1H-benzo[d][1,2,3]triazol-5-yl)oxy)phenyl)amino)pyrimido[5,4-d]pyrimidin-2-y1)-3,6-diazabicyclo[3.1.1]heptan-6-yl)prop-2-en-1-one] were, in that order, 100 to 500 nM and 100 to 500 nM.
Turning to `C=C(COC)C(=O)NC1CCN(c2ncc3ncnc(Nc4ccc(Oc5ccc6c(c5)nnn6C)c(C)c4)c3n2)CC1` [Compound 212, 2-(methoxymethyl)-N-(1-(8-((3-methyl-4-((1-methyl-1H-benzo[d][1,2,3]triazol-5-yl)oxy)phenyl)amino)pyrimido [5,4-d]pyrimidin-2-yl)piperidin-4-yl)acrylamide], the IC50 at ErbB2 V777L was in the range of 50 to 100 nM; at EGFR WT, 100 to 500 nM.
Turning to `C=CC(=O)N1CCN(c2ncc3ncnc(Nc4ccc(Oc5cc6nnn(C)c6c(F)c5C)c(C)c4)c3n2)CC1` [Compound 137, 1-(4-(8-((4-((7-fluoro-1,6-dimethyl-1H-benzo[d][1,2,3]triazol-5-yl)oxy)-3-methylphenyl)amino)pyrimido[5,4-d]pyrimidin-2-yl)piperazin-1-yl)prop-2-en-1-one], the half-inhibitory concentration (IC50) against ErbB2 V777L and against EGFR WT was 100 to 500 nM each time.
On to `C=CC(=O)N1C[C@@H](N(C)c2ccc3ncnc(Nc4ccc(Oc5ccc6c(c5)nnn6C)c(C)c4)c3n2)C[C@H]1C` [Compound 351, 1-((2R,4S)-2-methyl-4-(methyl(4-((3-methyl-4-((1-methyl-H-benzo[d][1,2,3]triazol-5-yl)oxy)phenyl)amino)pyrido[3,2-d]pyrimidin-6-yl)amino)pyrrolidin-1-yl)prop-2-en-1-one], for which the half-inhibitory concentration (IC50) at ErbB2 V777L lay in the range of 100 to 500 nM; on EGFR WT, 500 to 1000 nM.
With `C=CC(=O)N1CCN(c2ccc3ncnc(Nc4cc(C)c(Oc5ccc6c(c5)nnn6C)cc4OC)c3n2)C[C@H]1C` [Compound 316, (R)-1-(4-(4-((2-methoxy-5-methyl-4-((1-methyl-1H-benzo[d][1,2,3]triazol-5-yl)oxy)phenyl)amino)pyrido[3,2-d]pyrimidin-6-y1)-2-methylpiperazin-1-yl)prop-2-en-1-one], the half-maximal inhibitory concentration (IC50) on ErbB2 V777L (ErbB2 V777L enzyme, ATP at Km (110 μM), 1 h incubation) is 50 to 100 nM; against EGFR WT, 100 to 500 nM.
On to `C=CC(=O)N1CCN(c2ncc3ncnc(Nc4ccc(Oc5ccc6c(c5)nnn6C)c(C)c4F)c3n2)C[C@H]1C` [Compound 156, (R)-1-(4-(8-((2-fluoro-3-methyl-4-((1-methyl-1H-benzo[d][1,2,3]triazol-5-yl)oxy)phenyl)amino)pyrimido[5,4-d]pyrimidin-2-y1)-2-methylpiperazin-1-yl)prop-2-en-1-one], for which the IC50 at ErbB2 V777L and against EGFR WT was 100 to 500 nM in each case.
For the molecule `C=CC(=O)N1CC[C@@H]2CN(c3ncc4ncnc(Nc5ccc(Oc6ccc7c(c6)nnn7C)c(C)c5)c4n3)C[C@@H]21` [Compound 150, 1-((3aR,6aR)-5-(8-((3-methyl-4-((1-methyl-1H-benzo[d][1,2,3]triazol-5-yl)oxy)phenyl)amino)pyrimido[5,4-d]pyrimidin-2-yl)hexahydropyrrolo[3,4-b]pyrrol-1(2H)-yl)prop-2-en-1-one], the concentration for half-maximal inhibition (IC50) was in the range of 100 to 500 nM against ErbB2 V777L and 500 to 1000 nM on EGFR WT.
The like results for `C=CC(=O)N1CCN(c2ncc3ncnc(Nc4ccc(Oc5cc6nnn(C)c6c(C)c5F)c(C)c4F)c3n2)C[C@H]1C` [Compound 180, (R)-1-(4-(8-((2-fluoro-4-((6-fluoro-1,7-dimethyl-1H-benzo[d][1,2,3]triazol-5-yl)oxy)-3-methylphenyl)amino)pyrimido[5,4-d]pyrimidin-2-y1)-2-methylpiperazin-1-yl)prop-2-en-1-one] were, in that order, 50 to 100 nM and 50 to 100 nM.
Regarding `C=CC(=O)N1CCCN(c2ccc3ncnc(Nc4ccc(Oc5ccc6c(c5)nnn6C)c(C)c4)c3n2)C[C@H]1C` [Compound 285, (R)-1-(2-methyl-4-(4-((3-methyl-4-((1-methyl-1H-benzo[d][1,2,3]triazol-5-yl)oxy)phenyl)amino)pyrido[3,2-d]pyrimidin-6-yl)-1,4-diazepan-1-yl)prop-2-en-1-one], the IC50 at ErbB2 V777L was 500 to 1000 nM; on EGFR WT, ≥ 1000 nM.
